Four compounds from ChEMBL document CHEMBL2380196, “New anticancer active and selective phenylene-bisbenzothiazoles: synthesis, antiproliferative evaluation and DNA binding” (Eur J Med Chem, 2013) can be followed below.

Active and inactive are the calls of the source. The rule behind the calls is not given here. Some results are limits rather than exact numbers.

Data set [1] has as its system DNA. As to the kind of experiment: Binding affinity to calf thymus DNA at 50 uM by Circular dichroism spectra analysis. The data set is classed as nucleic-acid assay. As to conditions: Bos taurus. In general terms: Circular dichroism is the unequal absorption of left and right circularly polarised light.
Data set [2] deals with DNA. As to the kind of experiment: Binding affinity to calf thymus DNA assessed as change in melting temperature at 0.5 drug/DNA ratio by spectrophotometer analysis. As to conditions: Bos taurus. The data set is classed as nucleic-acid assay.
For data set [3], the system named is DNA. Nature of the data set: Binding affinity to calf thymus DNA assessed as hypochromic effect at 20 uM by UV/Vis spectra analysis. The data set is classed as nucleic-acid assay. Conditions: Bos taurus.
The next data set has as its system HeLa. Nature of the data set: Antiproliferative activity against human HeLa cells after 72 hrs by MTT assay. Conditions: for CC50: read-out: LC50 (the source's name). The data set is classed as functional, cell-based. On the technique in general: Tetrazolium assays rely on reduction of a dye to a coloured formazan, in cell work by metabolically active cells.
A short description of data set [4]: (§1) Antiproliferative activity against human WI38 cells after 72 hrs by MTT assay. As to conditions: human, WI-38 cells; read-out: LC50. The data set is classed as cell-based, WI-38.
Another data set concerns WI-38. Described as §1. The data set is classed as cell-based. Conditions: Homo sapiens, WI-38, 72 h.
Another data set deals with SW-620. Nature of the data set: Antiproliferative activity against human SW620 cells after 72 hrs by MTT assay. The data set is classed as functional, cell-based. Conditions: SW-620, 72 h; for CC50: read-out: LC50 (the source's name).
The next data set relates to MIA PaCa-2. Nature of the data set: Antiproliferative activity against human MIAPaCa2 cells after 72 hrs by MTT assay. The data set is classed as functional, cell-based. Conditions: MIA PaCa-2, 72 h; for CC50: read-out: LC50 (the source's name).
In another data set the test system is SK-BR-3. As to the kind of experiment: Antiproliferative activity against human SKBR3 cells after 72 hrs by MTT assay. The data set is classed as functional, cell-based. As to conditions: SK-BR-3, 72 h; for CC50: read-out: LC50 (the source's name).
A further data set deals with MCF7. Nature of the data set: Antiproliferative activity against human MCF7 cells after 72 hrs by MTT assay. The data set is classed as functional, cell-based. As to conditions: MCF7, 72 h; for CC50: read-out: LC50 (the source's name).
In data set [5] the target is DNA topoisomerase 2-alpha (Homo sapiens) (UniProt P11388). Nature of the data set: Inhibition of human topoisomerase 2-mediated supercoiled pUC19 DNA relaxation assessed as formation of open circle form after 45 mins using ethidium bromide staining by agarose gel electrophoresis.
The target of data set [6] is T1, DNA topoisomerase 1 (Homo sapiens) (UniProt P11387).
T1 sequence (whole entry): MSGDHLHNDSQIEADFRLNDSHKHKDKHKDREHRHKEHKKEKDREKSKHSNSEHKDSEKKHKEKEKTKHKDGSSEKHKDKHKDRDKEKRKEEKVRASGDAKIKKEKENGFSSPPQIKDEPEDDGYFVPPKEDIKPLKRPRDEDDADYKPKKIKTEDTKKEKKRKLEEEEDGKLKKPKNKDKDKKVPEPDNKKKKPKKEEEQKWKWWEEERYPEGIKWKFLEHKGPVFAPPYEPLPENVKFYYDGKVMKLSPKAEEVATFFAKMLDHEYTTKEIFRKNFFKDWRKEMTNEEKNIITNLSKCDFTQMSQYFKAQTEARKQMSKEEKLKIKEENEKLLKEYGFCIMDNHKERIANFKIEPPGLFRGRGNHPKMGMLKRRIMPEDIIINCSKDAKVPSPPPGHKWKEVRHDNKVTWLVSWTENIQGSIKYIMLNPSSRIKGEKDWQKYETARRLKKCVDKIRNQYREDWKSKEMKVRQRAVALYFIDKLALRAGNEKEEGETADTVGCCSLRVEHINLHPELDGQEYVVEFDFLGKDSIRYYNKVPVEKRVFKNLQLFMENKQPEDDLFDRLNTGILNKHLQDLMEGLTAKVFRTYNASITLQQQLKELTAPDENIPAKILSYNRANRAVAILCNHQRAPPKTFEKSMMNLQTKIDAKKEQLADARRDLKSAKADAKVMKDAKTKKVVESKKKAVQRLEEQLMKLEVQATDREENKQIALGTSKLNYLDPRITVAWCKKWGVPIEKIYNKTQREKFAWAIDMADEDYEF
As to the kind of experiment: Inhibition of human topoisomerase 1-mediated supercoiled pUC19 DNA relaxation assessed as formation of open circle form after 45 mins using ethidium bromide staining by agarose gel electrophoresis.

Data set [7] relates to DNA. As to the kind of experiment: Binding affinity to calf thymus DNA assessed as change in melting temperature at 0.25 drug/DNA ratio by spectrophotometer analysis. The data set is classed as nucleic-acid assay. As to conditions: Bos taurus.
For data set [8], the target named is T1, DNA topoisomerase 1 (Homo sapiens). Nature of the data set: Inhibition of human topoisomerase 1-mediated supercoiled pUC19 DNA relaxation at 1 to 50 uM after 45 mins by agarose gel electrophoresis.

Chain of DNA topoisomerase 2-alpha (Homo sapiens) (P11388 whole entry): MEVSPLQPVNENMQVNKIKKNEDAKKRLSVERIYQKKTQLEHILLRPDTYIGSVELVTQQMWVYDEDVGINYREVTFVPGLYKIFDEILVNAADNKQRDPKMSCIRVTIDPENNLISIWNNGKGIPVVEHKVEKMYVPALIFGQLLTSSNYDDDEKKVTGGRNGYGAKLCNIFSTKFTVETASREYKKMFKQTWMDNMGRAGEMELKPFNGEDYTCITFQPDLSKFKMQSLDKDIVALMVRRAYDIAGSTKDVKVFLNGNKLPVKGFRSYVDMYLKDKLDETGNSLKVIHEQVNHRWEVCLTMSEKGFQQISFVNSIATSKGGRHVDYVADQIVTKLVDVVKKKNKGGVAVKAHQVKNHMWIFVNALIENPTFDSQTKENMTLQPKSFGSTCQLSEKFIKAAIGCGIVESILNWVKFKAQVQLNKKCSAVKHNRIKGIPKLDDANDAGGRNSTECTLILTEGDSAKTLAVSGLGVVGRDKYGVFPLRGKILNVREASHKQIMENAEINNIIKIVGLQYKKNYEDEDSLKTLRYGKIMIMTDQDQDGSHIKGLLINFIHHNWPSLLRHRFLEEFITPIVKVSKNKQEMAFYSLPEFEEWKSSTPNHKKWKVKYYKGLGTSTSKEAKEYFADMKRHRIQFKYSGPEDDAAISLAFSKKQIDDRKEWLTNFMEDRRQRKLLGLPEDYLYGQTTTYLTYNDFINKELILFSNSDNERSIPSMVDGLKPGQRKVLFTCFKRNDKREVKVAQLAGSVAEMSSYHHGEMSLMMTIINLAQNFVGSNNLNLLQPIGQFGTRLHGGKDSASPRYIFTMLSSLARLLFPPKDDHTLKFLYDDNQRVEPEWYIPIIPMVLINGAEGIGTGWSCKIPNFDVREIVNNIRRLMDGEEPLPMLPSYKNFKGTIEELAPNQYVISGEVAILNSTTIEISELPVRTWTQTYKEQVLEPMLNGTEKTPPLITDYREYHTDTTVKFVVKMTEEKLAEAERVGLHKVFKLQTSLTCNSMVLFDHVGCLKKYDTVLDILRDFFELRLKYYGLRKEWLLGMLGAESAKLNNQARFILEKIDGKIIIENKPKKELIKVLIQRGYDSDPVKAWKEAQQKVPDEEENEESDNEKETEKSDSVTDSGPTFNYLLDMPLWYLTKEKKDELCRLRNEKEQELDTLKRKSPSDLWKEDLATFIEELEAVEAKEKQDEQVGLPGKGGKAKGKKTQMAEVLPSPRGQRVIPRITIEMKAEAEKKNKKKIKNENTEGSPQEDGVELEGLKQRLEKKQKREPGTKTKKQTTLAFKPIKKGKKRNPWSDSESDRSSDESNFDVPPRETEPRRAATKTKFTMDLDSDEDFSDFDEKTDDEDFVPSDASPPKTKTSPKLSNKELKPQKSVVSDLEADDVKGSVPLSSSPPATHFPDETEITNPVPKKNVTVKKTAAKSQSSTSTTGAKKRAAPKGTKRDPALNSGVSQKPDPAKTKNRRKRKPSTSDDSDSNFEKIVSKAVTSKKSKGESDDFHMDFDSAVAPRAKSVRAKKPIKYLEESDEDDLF

Take `N=C(N)c1ccc2nc(-c3ccccc3-c3nc4ccc(C(=N)N)cc4s3)sc2c1`: the result in the data set on DNA [1] and in the data set on DNA [3] was Active. Further, in the data set on DNA [2], the ΔTm (commonly the change in melting temperature against a reference sample) turned out to be 9.8 °C. The IC50 (in general, the concentration that gives 50% inhibition) in the data set on HeLa was 63.6 µM; with WI-38, 86.4 µM; with SW-620, over 100 µM; in the data set with MIA PaCa-2, 44.8 µM; in the data set with SK-BR-3, 86.6 µM; in the data set on MCF7, 30.9 µM. For the same compound, the CC50 with HeLa, in the data set with SW-620, with MIA PaCa-2, in the data set with SK-BR-3 and in the data set on MCF7 was over 100 µM throughout. Besides, the CC50 at 72 h in data set [4] was over 100 µM.
Regarding `N=C(N)c1ccc2nc(-c3cccc(-c4nc5ccc(C(=N)N)cc5s4)c3)sc2c1`, the inhibition result in [5] and in [6] was “Active” each time. In addition, the outcome in the data set on DNA [1] and in the data set with DNA [3] was Active. Further, the shift in melting temperature (ΔTm) in the data set with DNA [7] was 13.7 °C. Besides, the half-inhibitory concentration (IC50) with HeLa was over 100 µM; with WI-38, 0.99 µM; with SW-620 it was 6.01 µM; with MIA PaCa-2, over 100 µM; in the data set on SK-BR-3, 83.2 µM; in the data set on MCF7 it was 5.34 µM. Further, the CC50 in the data set with HeLa, with SW-620, with MIA PaCa-2, in the data set with SK-BR-3 and in the data set on MCF7 was over 100 µM each time. Further, the CC50 at 72 h in data set [4] turned out to be 65.4 µM.
As to `c1ccc(-c2nc3ccc(C4=NCCN4)cc3s2)c(-c2nc3ccc(C4=NCCN4)cc3s2)c1`, the inhibition result in [8] was “Active”. In addition, the outcome in the data set on DNA [1] and in the data set with DNA [3] was Active. Further, in the data set on DNA [2], the ΔTm turned out to be 16.8 °C. Also, the IC50 with HeLa was found to be 26.8 µM; in the data set with WI-38, 8.99 µM; with SW-620 it was 24.7 µM; with MIA PaCa-2, 14.6 µM; with SK-BR-3 it was 1.86 µM; in the data set on MCF7 it was 10.1 µM. Besides, the CC50 in the data set on HeLa came out at 76.4 µM; in the data set with SW-620, 81.3 µM; in the data set with MIA PaCa-2, 72.9 µM; in the data set on SK-BR-3, 67.9 µM; in the data set with MCF7 it was 71.4 µM. In data set [4], the CC50 at 72 h was found to be 74.3 µM.
Regarding `N=C(N)c1ccc2nc(-c3ccc(-c4nc5ccc(C(=N)N)cc5s4)cc3)sc2c1`, the inhibition result in [5] and in data set [6] was “Active” throughout. Moreover, in the data set with DNA [1], the result was inactive. Further, the shift in melting temperature (ΔTm) in the data set with DNA [2] came to 3 °C. Besides, the result with DNA [3] was Active. Also, the IC50 with HeLa is 9.6 µM; in the data set with WI-38 it was 41.9 µM; in the data set with SW-620, over 100 µM; in the data set with MIA PaCa-2, 20.4 µM; in the data set on SK-BR-3, 8.55 µM; in the data set with MCF7, 9.01 µM. The CC50 in the data set on HeLa, in the data set with SW-620, in the data set on MIA PaCa-2, in the data set on SK-BR-3 and in the data set on MCF7 was over 100 µM throughout. Also, in data set [4], the CC50 at 72 h was over 100 µM.
